# Assay results published in ChEMBL document CHEMBL5465560, “Selectivity Literature for EUbOPEN Chemogenomic Library” (2024).
# Key:
# [1] = system: Tyrosine-protein kinase ABL1 (Homo sapiens), P00519 [Q252H]; experiment: Selectivity interaction (KinomeScan (DiscoverX)) EUB0001049a ABL1; conditions: at 1 µM
# [2] = target: ATPase family AAA domain-containing protein 2B (Homo sapiens) (UniProt Q9ULI0); experiment: Selectivity interaction (Human bromodomain panel (DSF assay)) EUB0000233b ATAD2B
# [3] = target: Calcium/calmodulin-dependent protein kinase type II subunit delta (Homo sapiens) (UniProt Q13557); conditions: at 10 µM
# Sequence of Calcium/calmodulin-dependent protein kinase type II subunit delta (Homo sapiens) (Q13557 whole entry): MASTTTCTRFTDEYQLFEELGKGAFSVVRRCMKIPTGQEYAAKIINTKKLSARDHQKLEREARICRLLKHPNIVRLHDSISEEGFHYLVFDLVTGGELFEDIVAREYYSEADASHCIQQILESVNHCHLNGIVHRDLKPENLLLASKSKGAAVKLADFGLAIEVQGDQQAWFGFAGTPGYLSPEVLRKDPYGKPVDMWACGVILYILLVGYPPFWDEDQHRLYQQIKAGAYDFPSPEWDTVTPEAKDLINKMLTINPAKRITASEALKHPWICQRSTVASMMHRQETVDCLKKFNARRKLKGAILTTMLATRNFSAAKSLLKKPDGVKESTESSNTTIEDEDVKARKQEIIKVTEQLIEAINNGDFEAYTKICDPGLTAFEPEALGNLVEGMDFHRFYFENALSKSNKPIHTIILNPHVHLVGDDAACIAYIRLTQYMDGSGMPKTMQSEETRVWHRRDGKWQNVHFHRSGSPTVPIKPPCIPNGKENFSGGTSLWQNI
# [4] = target: Serine/threonine-protein kinase SMG1 (Homo sapiens) (UniProt Q96Q15); experiment: Selectivity interaction (ActivX KiNativ screen (kinase selectivity in THP-1 cell lysates)) EUB0000639a SMG1; type: subcellular; conditions: lysate, at 1 µM
# [5] = target: Serine/threonine-protein kinase N1 (Homo sapiens, UniProt Q16512); experiment: Selectivity interaction (ActivX KiNativ screen (kinase selectivity in THP-1 cell lysates)) EUB0000639a PKN1; type: subcellular; conditions: lysate
# Sequence of Serine/threonine-protein kinase N1 (Q16512 2-942 limits assumed): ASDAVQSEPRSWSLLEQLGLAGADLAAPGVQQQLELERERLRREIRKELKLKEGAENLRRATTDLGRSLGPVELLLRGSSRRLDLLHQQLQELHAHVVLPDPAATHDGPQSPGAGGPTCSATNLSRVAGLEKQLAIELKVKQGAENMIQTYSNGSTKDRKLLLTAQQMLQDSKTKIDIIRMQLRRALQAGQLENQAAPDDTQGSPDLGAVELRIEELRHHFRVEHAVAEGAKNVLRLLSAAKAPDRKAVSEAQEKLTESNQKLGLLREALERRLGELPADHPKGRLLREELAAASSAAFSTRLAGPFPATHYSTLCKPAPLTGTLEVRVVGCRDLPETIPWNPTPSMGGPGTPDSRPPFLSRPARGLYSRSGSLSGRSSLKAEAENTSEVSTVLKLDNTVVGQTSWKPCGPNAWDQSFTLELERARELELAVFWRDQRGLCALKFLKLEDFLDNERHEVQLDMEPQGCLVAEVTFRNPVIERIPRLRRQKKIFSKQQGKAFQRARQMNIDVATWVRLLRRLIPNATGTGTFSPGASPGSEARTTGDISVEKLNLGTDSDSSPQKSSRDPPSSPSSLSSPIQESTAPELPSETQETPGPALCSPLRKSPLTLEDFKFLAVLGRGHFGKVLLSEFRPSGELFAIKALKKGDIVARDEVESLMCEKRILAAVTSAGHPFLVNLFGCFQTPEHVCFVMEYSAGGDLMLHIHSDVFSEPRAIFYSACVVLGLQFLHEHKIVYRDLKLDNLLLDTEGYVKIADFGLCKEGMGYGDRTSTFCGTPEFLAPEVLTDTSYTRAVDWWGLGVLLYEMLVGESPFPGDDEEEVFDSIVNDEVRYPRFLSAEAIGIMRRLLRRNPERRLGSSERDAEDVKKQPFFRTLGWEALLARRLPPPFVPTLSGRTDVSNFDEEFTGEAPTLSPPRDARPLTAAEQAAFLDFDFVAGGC
# [6] = target: Phosphatidylinositol 4-phosphate 5-kinase type-1 gamma (Homo sapiens) (UniProt O60331); experiment: Selectivity interaction (KinomeScan (DiscoverX)) EUB0000092b PIP5K1C; conditions: at 10 µM
# Sequence of Phosphatidylinositol 4-phosphate 5-kinase type-1 gamma (Homo sapiens) (O60331 whole entry): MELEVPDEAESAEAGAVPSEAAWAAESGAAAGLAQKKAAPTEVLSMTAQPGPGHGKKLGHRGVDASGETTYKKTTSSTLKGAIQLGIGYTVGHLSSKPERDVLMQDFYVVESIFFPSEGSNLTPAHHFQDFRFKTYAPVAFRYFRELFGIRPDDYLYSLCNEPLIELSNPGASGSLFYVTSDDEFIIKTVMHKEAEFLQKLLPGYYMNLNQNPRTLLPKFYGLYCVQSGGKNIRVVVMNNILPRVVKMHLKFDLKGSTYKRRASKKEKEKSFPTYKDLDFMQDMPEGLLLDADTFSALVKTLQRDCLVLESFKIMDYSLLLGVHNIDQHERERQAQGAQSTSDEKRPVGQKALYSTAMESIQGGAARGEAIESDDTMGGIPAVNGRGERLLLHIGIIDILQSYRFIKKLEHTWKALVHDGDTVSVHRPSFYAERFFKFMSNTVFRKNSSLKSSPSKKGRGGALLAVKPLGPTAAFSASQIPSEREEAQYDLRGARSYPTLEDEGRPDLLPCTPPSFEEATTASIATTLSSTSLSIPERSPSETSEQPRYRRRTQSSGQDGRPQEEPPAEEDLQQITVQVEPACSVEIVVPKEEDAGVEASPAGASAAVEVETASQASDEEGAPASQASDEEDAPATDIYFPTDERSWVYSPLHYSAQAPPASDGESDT
# [7] = target: T1, Peripheral plasma membrane protein CASK (Homo sapiens) (UniProt O14936); experiment: Selectivity interaction (KinomeScan (DiscoverX)) EUB0000092b CASK; conditions: at 10 µM
# T1 sequence (whole entry): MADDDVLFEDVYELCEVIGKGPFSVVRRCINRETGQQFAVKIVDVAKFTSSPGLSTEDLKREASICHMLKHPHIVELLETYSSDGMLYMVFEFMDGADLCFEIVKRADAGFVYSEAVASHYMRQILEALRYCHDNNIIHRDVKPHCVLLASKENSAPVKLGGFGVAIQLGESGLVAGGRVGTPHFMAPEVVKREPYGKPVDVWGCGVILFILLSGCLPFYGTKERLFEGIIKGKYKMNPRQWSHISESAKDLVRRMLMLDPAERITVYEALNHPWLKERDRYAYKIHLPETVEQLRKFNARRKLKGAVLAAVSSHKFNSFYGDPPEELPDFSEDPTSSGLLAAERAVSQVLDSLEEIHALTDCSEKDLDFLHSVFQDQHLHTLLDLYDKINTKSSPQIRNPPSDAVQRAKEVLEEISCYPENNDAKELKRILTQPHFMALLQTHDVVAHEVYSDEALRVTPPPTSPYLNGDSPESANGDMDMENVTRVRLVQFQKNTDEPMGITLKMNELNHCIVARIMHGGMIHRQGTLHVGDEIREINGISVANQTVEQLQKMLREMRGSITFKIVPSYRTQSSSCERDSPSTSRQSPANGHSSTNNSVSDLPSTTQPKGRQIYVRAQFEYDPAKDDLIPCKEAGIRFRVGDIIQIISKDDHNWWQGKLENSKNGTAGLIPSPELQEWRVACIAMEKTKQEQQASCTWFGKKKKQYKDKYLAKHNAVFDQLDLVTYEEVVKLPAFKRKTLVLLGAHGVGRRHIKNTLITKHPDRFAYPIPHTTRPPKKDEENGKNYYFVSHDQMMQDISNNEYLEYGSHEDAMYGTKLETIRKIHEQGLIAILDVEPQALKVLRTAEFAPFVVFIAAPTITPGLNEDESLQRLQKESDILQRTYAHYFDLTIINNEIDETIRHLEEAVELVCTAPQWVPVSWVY
# [8] = target: Tyrosine-protein kinase Fyn (Homo sapiens) (UniProt P06241); experiment: Selectivity interaction (Kinase screening (Upstate/Millipore)) EUB0000604a FYN
# Sequence of Tyrosine-protein kinase Fyn (Homo sapiens) (P06241 2-537 limits assumed): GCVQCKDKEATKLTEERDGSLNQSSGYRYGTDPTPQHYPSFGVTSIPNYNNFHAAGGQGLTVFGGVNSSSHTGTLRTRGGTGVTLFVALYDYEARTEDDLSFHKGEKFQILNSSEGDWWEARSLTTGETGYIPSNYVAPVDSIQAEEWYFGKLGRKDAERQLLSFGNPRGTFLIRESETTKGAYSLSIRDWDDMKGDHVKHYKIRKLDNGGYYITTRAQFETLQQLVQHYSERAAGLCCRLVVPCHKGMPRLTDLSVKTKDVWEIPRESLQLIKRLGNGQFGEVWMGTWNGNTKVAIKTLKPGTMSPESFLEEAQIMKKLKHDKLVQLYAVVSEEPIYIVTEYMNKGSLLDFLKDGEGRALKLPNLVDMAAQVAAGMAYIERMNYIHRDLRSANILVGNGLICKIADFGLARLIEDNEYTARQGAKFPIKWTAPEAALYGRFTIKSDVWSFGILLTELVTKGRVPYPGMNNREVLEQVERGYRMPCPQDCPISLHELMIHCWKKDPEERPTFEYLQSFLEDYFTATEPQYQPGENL
# [9] = target: Ribosomal protein S6 kinase beta-1 (Homo sapiens, UniProt P23443); experiment: Selectivity interaction (KinomeScan (DiscoverX)) EUB0000045b RPS6KB1
# Sequence of Ribosomal protein S6 kinase beta-1 (P23443 whole entry, looked up): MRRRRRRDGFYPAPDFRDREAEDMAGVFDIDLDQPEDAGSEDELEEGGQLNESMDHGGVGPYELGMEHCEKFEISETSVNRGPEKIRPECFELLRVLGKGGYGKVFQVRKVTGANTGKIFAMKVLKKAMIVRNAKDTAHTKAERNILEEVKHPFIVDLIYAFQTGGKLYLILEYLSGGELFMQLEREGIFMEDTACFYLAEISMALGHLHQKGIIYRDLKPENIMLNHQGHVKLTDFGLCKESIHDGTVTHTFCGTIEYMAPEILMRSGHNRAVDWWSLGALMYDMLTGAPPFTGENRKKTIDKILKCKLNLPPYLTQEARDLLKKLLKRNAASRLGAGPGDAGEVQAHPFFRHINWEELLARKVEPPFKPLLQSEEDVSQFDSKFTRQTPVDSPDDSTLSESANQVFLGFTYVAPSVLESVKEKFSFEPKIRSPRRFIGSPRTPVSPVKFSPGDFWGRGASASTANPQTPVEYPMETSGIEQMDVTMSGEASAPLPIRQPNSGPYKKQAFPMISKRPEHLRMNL
# [10] = target: T2, Ephrin type-B receptor 6 (Homo sapiens) (UniProt O15197); experiment: Selectivity interaction (KinomeScan (DiscoverX)) EUB0000045b EPHB6
# T2 sequence (whole entry): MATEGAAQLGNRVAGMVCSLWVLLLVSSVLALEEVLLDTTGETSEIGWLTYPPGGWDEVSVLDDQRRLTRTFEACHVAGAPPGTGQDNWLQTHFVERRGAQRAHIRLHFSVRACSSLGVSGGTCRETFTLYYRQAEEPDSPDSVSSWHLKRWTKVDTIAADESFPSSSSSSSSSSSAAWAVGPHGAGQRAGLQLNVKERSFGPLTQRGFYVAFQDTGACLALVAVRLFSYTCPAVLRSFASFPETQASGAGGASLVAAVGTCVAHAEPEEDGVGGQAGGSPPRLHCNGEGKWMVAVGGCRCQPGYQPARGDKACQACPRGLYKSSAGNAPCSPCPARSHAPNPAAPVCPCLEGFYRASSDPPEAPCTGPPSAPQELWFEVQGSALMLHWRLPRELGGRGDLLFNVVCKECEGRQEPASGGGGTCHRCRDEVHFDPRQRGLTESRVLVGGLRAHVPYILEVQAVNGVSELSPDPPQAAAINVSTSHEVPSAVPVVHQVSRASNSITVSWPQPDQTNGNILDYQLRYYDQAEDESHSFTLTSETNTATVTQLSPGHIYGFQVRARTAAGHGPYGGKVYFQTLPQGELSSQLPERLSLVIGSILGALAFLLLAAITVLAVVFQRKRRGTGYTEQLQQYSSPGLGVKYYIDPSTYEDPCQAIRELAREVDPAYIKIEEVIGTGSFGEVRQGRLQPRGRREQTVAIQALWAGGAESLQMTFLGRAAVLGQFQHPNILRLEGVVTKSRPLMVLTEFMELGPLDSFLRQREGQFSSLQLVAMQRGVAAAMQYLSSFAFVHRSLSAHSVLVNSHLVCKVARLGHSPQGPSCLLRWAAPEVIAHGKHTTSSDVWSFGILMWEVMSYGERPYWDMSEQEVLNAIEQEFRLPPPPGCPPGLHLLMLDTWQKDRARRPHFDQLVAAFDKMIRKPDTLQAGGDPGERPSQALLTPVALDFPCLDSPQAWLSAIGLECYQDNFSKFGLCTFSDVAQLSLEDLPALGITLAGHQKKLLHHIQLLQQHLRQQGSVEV
# Sequence of ATPase family AAA domain-containing protein 2B (Homo sapiens) (Q9ULI0 whole entry, the tested form may be a part): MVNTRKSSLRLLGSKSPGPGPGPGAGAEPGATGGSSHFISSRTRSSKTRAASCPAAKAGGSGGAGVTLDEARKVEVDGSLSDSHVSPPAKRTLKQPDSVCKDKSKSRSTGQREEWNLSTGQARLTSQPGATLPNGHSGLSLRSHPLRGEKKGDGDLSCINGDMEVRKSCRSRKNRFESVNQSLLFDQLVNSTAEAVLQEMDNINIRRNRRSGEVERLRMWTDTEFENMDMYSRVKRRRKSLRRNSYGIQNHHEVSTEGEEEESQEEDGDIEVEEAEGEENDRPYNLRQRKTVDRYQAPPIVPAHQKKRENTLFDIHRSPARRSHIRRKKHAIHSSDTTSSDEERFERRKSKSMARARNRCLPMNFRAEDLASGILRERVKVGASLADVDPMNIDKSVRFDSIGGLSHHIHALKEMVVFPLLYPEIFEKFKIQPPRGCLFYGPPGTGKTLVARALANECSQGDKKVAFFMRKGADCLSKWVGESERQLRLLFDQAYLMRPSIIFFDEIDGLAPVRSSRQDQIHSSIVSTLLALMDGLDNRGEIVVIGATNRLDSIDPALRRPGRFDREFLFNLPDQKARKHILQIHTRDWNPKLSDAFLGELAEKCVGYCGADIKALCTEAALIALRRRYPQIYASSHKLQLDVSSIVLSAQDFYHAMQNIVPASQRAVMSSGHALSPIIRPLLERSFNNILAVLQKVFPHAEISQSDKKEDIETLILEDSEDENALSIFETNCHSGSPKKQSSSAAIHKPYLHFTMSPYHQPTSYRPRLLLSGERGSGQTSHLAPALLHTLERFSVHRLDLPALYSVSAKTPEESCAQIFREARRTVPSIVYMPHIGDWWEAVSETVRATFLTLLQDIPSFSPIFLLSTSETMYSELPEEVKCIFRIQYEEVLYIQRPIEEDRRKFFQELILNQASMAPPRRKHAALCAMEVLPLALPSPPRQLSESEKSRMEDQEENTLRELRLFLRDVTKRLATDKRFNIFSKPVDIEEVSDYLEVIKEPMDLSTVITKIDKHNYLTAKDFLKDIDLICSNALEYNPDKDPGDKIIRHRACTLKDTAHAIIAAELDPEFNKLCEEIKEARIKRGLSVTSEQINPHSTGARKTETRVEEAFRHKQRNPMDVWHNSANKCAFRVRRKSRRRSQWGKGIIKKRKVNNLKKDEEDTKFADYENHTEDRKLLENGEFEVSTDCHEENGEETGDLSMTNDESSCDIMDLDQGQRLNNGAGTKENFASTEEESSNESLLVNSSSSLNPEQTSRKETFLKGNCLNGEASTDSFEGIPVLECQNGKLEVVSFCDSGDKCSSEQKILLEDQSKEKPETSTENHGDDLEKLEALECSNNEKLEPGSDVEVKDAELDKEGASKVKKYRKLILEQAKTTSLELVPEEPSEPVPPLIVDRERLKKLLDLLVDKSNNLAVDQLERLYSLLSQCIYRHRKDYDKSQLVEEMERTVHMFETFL
structure (smiles),measurement,setting,value
COc1cc(Nc2nc(C)cc(-c3cnn4nc(OC)ccc34)n2)cc(C(F)(F)F)c1,% of control,[1],80%
CN(C)CCCOc1ccc(-c2cc(NCCCn3cccn3)nc(S(C)(=O)=O)n2)cc1,dTM,[2],< 2 K
CCN(CC)CCCCNc1ncc2cc(-c3cc(OC)cc(OC)c3)c(NC(=O)NC(C)(C)C)nc2n1,% of control,[3],100%
CC[C@@H]1[C@H](F)C(=O)N[C@@H]1COc1nccc2cc(C(N)=O)c(OC)cc12 [ZIMLOVISERTIB],% of inhibition,[4],4.9%
same,% of inhibition,[5]; at 0.01 µM,8.7%
same,% of inhibition,[5]; at 0.04 µM,3.4%
same,% of inhibition,[5]; at 0.2 µM,5%
same,% of inhibition,[5]; at 1 µM,5.9%
same,% of inhibition,[5]; at 5 µM,34.9%
CCC(=O)N1CCN(c2ccc(-n3c(=O)ccc4cnc5ccc(-c6cnc7ccccc7c6)cc5c43)cc2C(F)(F)F)CC1,% of control,[6],80%
same,% of control,[7],100%
Cc1cnc(Nc2ccc(F)cc2Cl)nc1-c1c[nH]c(C(=O)N[C@H](CO)c2cccc(Cl)c2)c1,% of inhibition,[8],11%
C=CC(=O)Nc1cc(-n2c(=O)ccc3cnc4ccc(-c5ccc(NS(C)(=O)=O)cc5)cc4c32)ccc1C,% of control,[9]; at 1 µM,100%
same,% of control,[9]; at 10 µM,76%
same,% of control,[10]; at 1 µM,90%
same,% of control,[10]; at 10 µM,85%
